The record followed here is patent US20220280507A1, “USES OF 5-METHYLTETRAHYDROFOLATE AND ITS COMPOSITION” (Lianyungang Jinkang Hexin Pharmaceutical Co., Ltd., priority 2019, published 2022).

Like-named read-outs stand apart in the source and are kept apart here.

One experiment has as its system hyperlipemia rats. In words: Hyperlipemia rats (high-fat diet), biochemical indexes TG, TC, SOD, MDA. It counts as in vivo, SD rats. The protocol:
Experiment 5 Effect of 5-Methyltetrahydrofolate Calcium on Hyperlipemia Rats
7 weeks later, one rat in the control group and one rat in the model group were sacrificed for liver tissue section to check fatty degeneration of hepatocytes (see Table 7) to confirm whether modeling was successful. The remaining 40 modeling rats were randomly divided into low-dose (1 mg·Kg−1) group, medium-dose (2 mg·Kg−1) group, high-dose (4 mg·Kg−1) group, positive drug group, and model group.
Bicyclol (place of origin: Beijing Xiehe Pharmaceutical Factory, specification: 25 mg/tablet, batch number: H20040467) was used as a positive drug.
After successful modeling, rats were administered drugs with dosages as prescribed for 60 consecutive days, continued to be fed with high-fat diet, and dissected on the 61st day. Liver was harvested and weighed, liver index was calculated, right lobe tissue was taken to prepare frozen sections, and fat staining was performed with Sudan III for pathological scoring according to guidelines for diagnosis and treatment of NAFLD. Another liver tissue was taken to prepare homogenate, and total cholesterol (TC), triglyceride (TG), malondialdehyde (MDA), and superoxide dismutase (SOD) in serum were detected.

The next experiment relates to mice after drinking. Conditions: n=10. The procedure:
Experiment 8 Tail Suspension Test and Swimming Test in Mice after Drinking
Clean-grade male Kunming mice, weighing 18-22 g, were chosen. The test was carried out at 23° C. with a humidity of 50%. The mice ate and drank freely, adapting to the environment for 5 days before the test. Then they were divided into 5 groups: model group, normal group, high-dose 5-MTHF-Ca group, medium-dose 5-MTHF-Ca group and low-dose 5-MTHF-Ca group (16 mg·Kg−1, 8mg·Kg−1, 4mg·Kg−1),
10 mice in each group. The model group was given (by gavage) Erguotou (batch number: 201603092, specification: 2L, place of origin: Beijing Shunxin Agriculture Co., Ltd.) at 18 ml·Kg−1, and calcium folate (Lianyungang Jinkang Hexin Pharmaceutical Co., Ltd.). The high-dose, medium-dose and low-dose groups were also given the solution containing Erguotou and calcium folate. The mice were tested after 24 h. The tail suspension test is carried out by fixing the tail of a mouse so that it is suspended head down in a state of desperately struggling to escape but unable to escape. After a period of time, record the immobility time of the mouse in a desperate state in this environment to observe the therapeutic effect after administration. The head of the mouse suspended upside down was 10 cm from the bottom of the box, and two mice were suspended at a time, which were separated by a partition to avoid collision. The mice were suspended for 10 min, and the accumulated immobility time of the suspended mice was counted within the latter 5 min. The results are as follows:
The mice were placed in a plastic swimming box with a length of 50 cm, a width of 40 cm and a height of 40 cm. The time was counted for 10 min after the mice were placed in the water. The accumulated immobility time of the mice with only slight limb movements and no struggling, and remaining afloat was recorded within the latter 5 min.

A further experiment relates to IL-1β. Description: Alcoholic fatty liver model, IL-1β in hippocampus tissue (ELISA). It counts as in vivo, SD rats. The conditions noted are these: liquor model, n=16. The protocol: According to their weight, they were randomly divided into vehicle control group (purified water, ig), model control group (liquor, 10 ml·Kg−1), positive control group (bicyclol, 50 mg·Kg−1, ig), folic acid calcium salt high-dose group (4 mg·Kg−1), folic acid calcium salt medium-dose group (2 mg·Kg−1), folic acid calcium salt low-dose group (1 mg·Kg−1), in half female and half male, and 16 rats in each group. Purified water was used as a negative control, and bicyclol (place of origin: Beijing Xiehe Pharmaceutical Factory, specification: 25 mg/tablet, batch number: H20040467) was used as a positive control drug. Route of administration: all were administered by oral gavage. Dosage of administration: 1 mg·Kg−1, 2 mg·Kg−1, and 4 mg·Kg−1. Frequency of administration: once a day for 60 consecutive days.
Method of administration: administration started at prescribed doses on the day of modeling for 60 consecutive days and ended at the 60th day. At the same time, rats in each group were weighed every other week during administration period to monitor their body weight changes. On the 61st day, rats were dissected and serum was collected for determination of triglyceride (TG), total cholesterol (TC), malondialdehyde (MDA), superoxide dismutase (SOD) and liver histopathologic examination. The brain tissue of rats was taken out, and hippocampus tissue was separated on ice plate, prepared to homogenate with a mass fraction of 10% with purified water, then the homogenate was centrifuged to obtain supernatant. ELISA was used to detect the levels of inflammatory factors TNF-α and IL-1β in hippocampus tissue with continuous spectrum scanning microplate reader.
For orientation: ELISA stands for enzyme-linked immunosorbent assay.

As to 5-methyltetrahydrofolate calcium, the MDA in the experiment with hyperlipemia rats (1 mg·kg−1·d−1, 60 d) stood at 45.20 ± 8.17 nmol/mgprot; with hyperlipemia rats (2 mg·kg−1·d−1, 60 d) it was 42.26 ± 9.35 nmol/mgprot; in the experiment with hyperlipemia rats (4 mg·kg−1·d−1, 60 d), 40.98 ± 11.37 nmol/mgprot. Also, the SOD was 234.20 ± 21.36 U/mgprot in the experiment on hyperlipemia rats (1 mg·kg−1·d−1, 60 d); 257.41 ± 30.29 U/mgprot with hyperlipemia rats (2 mg·kg−1·d−1, 60 d); 260.97 ± 30.04 U/mgprot in the experiment on hyperlipemia rats (4 mg·kg−1·d−1, 60 d). Besides, the TC amounted to 1.45 ± 0.38 mmol/L in the experiment on hyperlipemia rats (1 mg·kg−1·d−1, 60 d); 1.57 ± 0.36 mmol/L with hyperlipemia rats (2 mg·kg−1·d−1, 60 d); 1.50 ± 0.34 mmol/L in the experiment with hyperlipemia rats (4 mg·kg−1·d−1, 60 d). In addition, the TG is on record as 1.07 ± 0.33 mmol/L in the experiment on hyperlipemia rats (1 mg·kg−1·d−1, 60 d); 1.03 ± 0.55 mmol/L in the experiment with hyperlipemia rats (2 mg·kg−1·d−1, 60 d); 1.05 ± 0.63 mmol/L in the experiment with hyperlipemia rats (4 mg·kg−1·d−1, 60 d). Besides, the Swimming immobility time is 104.64 ± 5.24 S with mice after drinking (high dose 16 mg·Kg−1 with Erguotou 18 ml·Kg−1, tested after 24 h); 123.56 ± 3.64 S with mice after drinking (low dose 4 mg·Kg−1 with Erguotou 18 ml·Kg−1, tested after 24 h); 110.42 ± 2.64 S with mice after drinking (medium dose 8 mg·Kg−1 with Erguotou 18 ml·Kg−1, tested after 24 h). The “IL-1β in hippocampus tissue” value is recorded as 63.05 ± 5.31 μg · g^−1 prot in the experiment with IL-1β (1 mg·kg−1·d−1 ig 60 d), 63.24 ± 13.44 μg · g^−1 prot with IL-1β (2 mg·kg−1·d−1 ig 60 d) and 55.21 ± 3.59 μg · g^−1 prot with IL-1β (4 mg·kg−1·d−1 ig 60 d).
